The text below walks through data of PubChem BioAssay AID1259407 (Chemical Carcinogenesis Research Information System (CCRIS), 2018).

SMILES strings stand for the structures. Activity calls are given as the source filed them. How the calls were made is not given here.

The test system of this data set is CCRIS mutagenicity, Ames/micronucleus/aberration tests. As to the kind of experiment: CCRIS mutagenicity studies.
Where [1] appears, read: Test System: AMES SALMONELLA TYPHIMURIUM, Strain/Indicator: TA98, Metabolic Activation: NONE, Method: PREINCUBATION
[2] abbreviates: Test System: AMES SALMONELLA TYPHIMURIUM, Strain/Indicator: TA100, Metabolic Activation: NONE, Method: PREINCUBATION
The mark [3] stands for this setting: Test System: AMES SALMONELLA TYPHIMURIUM, Strain/Indicator: TA1535, Metabolic Activation: NONE, Method: PREINCUBATION
Setting [4] is: Test System: AMES SALMONELLA TYPHIMURIUM, Strain/Indicator: TA100, Metabolic Activation: NONE, Method: STANDARD PLATE.

For the molecule `N#CC(O)c1ccccc1` (stereo not drawn), the mutagenic call was “inactive; negative” (Test System: AMES SALMONELLA TYPHIMURIUM, Strain/Indicator: TA97, Metabolic Activation: HAMSTER, LIVER, S-9, AROCLOR 1254 (10%), Method: PREINCUBATION); “inactive; negative” (Test System: AMES SALMONELLA TYPHIMURIUM, Strain/Indicator: TA97, Metabolic Activation: HAMSTER, LIVER, S-9, AROCLOR 1254 (30%), Method: PREINCUBATION); “inactive; negative” (Test System: AMES SALMONELLA TYPHIMURIUM, Strain/Indicator: TA97, Metabolic Activation: NONE, Method: PREINCUBATION); “inactive; negative” (Test System: AMES SALMONELLA TYPHIMURIUM, Strain/Indicator: TA97, Metabolic Activation: RAT, LIVER, S-9, AROCLOR 1254 (10%), Method: PREINCUBATION); “inactive; negative” (Test System: AMES SALMONELLA TYPHIMURIUM, Strain/Indicator: TA97, Metabolic Activation: RAT, LIVER, S-9, AROCLOR 1254 (30%), Method: PREINCUBATION); “inactive; negative” (Test System: AMES SALMONELLA TYPHIMURIUM, Strain/Indicator: TA98, Metabolic Activation: HAMSTER, LIVER, S-9, AROCLOR 1254 (10%), Method: PREINCUBATION). Moreover, the mutagenic call reads like this: (Test System: AMES SALMONELLA TYPHIMURIUM, Strain/Indicator: TA98, Metabolic Activation: HAMSTER, LIVER, S-9, AROCLOR 1254 (30%), Method: PREINCUBATION) “inactive; negative”; under setting [1], “inactive; negative”; (Test System: AMES SALMONELLA TYPHIMURIUM, Strain/Indicator: TA98, Metabolic Activation: RAT, LIVER, S-9, AROCLOR 1254 (10%), Method: PREINCUBATION) “inactive; negative”; (Test System: AMES SALMONELLA TYPHIMURIUM, Strain/Indicator: TA98, Metabolic Activation: RAT, LIVER, S-9, AROCLOR 1254 (30%), Method: PREINCUBATION) “inactive; negative”; (Test System: AMES SALMONELLA TYPHIMURIUM, Strain/Indicator: TA100, Metabolic Activation: HAMSTER, LIVER, S-9, AROCLOR 1254 (10%), Method: PREINCUBATION) “inactive; negative”; (Test System: AMES SALMONELLA TYPHIMURIUM, Strain/Indicator: TA100, Metabolic Activation: HAMSTER, LIVER, S-9, AROCLOR 1254 (30%), Method: PREINCUBATION) “inactive; negative”. In addition, the mutagenic call was “inactive; negative” under setting [2]; “inactive; negative” (Test System: AMES SALMONELLA TYPHIMURIUM, Strain/Indicator: TA100, Metabolic Activation: RAT, LIVER, S-9, AROCLOR 1254 (10%), Method: PREINCUBATION); “inactive; negative” (Test System: AMES SALMONELLA TYPHIMURIUM, Strain/Indicator: TA100, Metabolic Activation: RAT, LIVER, S-9, AROCLOR 1254 (30%), Method: PREINCUBATION); “inactive; negative” (Test System: AMES SALMONELLA TYPHIMURIUM, Strain/Indicator: TA1535, Metabolic Activation: HAMSTER, LIVER, S-9, AROCLOR 1254 (10%), Method: PREINCUBATION); “inactive; negative” (Test System: AMES SALMONELLA TYPHIMURIUM, Strain/Indicator: TA1535, Metabolic Activation: HAMSTER, LIVER, S-9, AROCLOR 1254 (30%), Method: PREINCUBATION); “inactive; negative” under setting [3]. Moreover, the mutagenic call is “inactive; negative” (Test System: AMES SALMONELLA TYPHIMURIUM, Strain/Indicator: TA1535, Metabolic Activation: RAT, LIVER, S-9, AROCLOR 1254 (10%), Method: PREINCUBATION) and “inactive; negative” (Test System: AMES SALMONELLA TYPHIMURIUM, Strain/Indicator: TA1535, Metabolic Activation: RAT, LIVER, S-9, AROCLOR 1254 (30%), Method: PREINCUBATION).
In the case of `c1ccc([C@H]2CO2)cc1`, the mutagenic call (Test System: AMES SALMONELLA TYPHIMURIUM, Strain/Indicator: TA100, Metabolic Activation: NONE) was “active; positive” and the mutagenic call under setting [4] was “active; positive”.
Regarding `CC(=O)Nc1ccc2c(c1OC(C)=O)Cc1ccccc1-2`, for the setting “Test System: AMES SALMONELLA TYPHIMURIUM, Strain/Indicator: TA98, Metabolic Activation: RAT, LIVER, S-9, AROCLOR 1254, Method: STANDARD PLATE”, the mutagenic call was “inactive; negative”.
With `O=S1(=O)CCCC1`, the mutagenic call by setting is: under setting [1], “inactive; negative”; (Test System: AMES SALMONELLA TYPHIMURIUM, Strain/Indicator: TA98, Metabolic Activation: RAT, LIVER, S-9, KC 500, Method: PREINCUBATION) “inactive; negative”; under setting [2], “inactive; negative”; (Test System: AMES SALMONELLA TYPHIMURIUM, Strain/Indicator: TA100, Metabolic Activation: RAT, LIVER, S-9, KC 500, Method: PREINCUBATION) “inactive; negative”; under setting [3], “inactive; negative”; (Test System: AMES SALMONELLA TYPHIMURIUM, Strain/Indicator: TA1535, Metabolic Activation: RAT, LIVER, S-9, KC 500, Method: PREINCUBATION) “inactive; negative”. In addition, the mutagenic call is, setting by setting: (Test System: AMES SALMONELLA TYPHIMURIUM, Strain/Indicator: TA1537, Metabolic Activation: NONE, Method: PREINCUBATION) “inactive; negative”; (Test System: AMES SALMONELLA TYPHIMURIUM, Strain/Indicator: TA1537, Metabolic Activation: RAT, LIVER, S-9, KC 500, Method: PREINCUBATION) “inactive; negative”; (Test System: AMES SALMONELLA TYPHIMURIUM, Strain/Indicator: TA1538, Metabolic Activation: NONE, Method: PREINCUBATION) “inactive; negative”; (Test System: AMES SALMONELLA TYPHIMURIUM, Strain/Indicator: TA1538, Metabolic Activation: RAT, LIVER, S-9, KC 500, Method: PREINCUBATION) “inactive; negative”; (Test System: E. COLI, Strain/Indicator: WP2 UVRA, Metabolic Activation: NONE, Method: PREINCUBATION) “inactive; negative”; (Test System: E. COLI, Strain/Indicator: WP2 UVRA, Metabolic Activation: RAT, LIVER, S-9, KC 500, Method: PREINCUBATION) “inactive; negative”.
Consider `CCCCO`, for which the mutagenic call is, setting by setting: (Test System: AMES SALMONELLA TYPHIMURIUM, Strain/Indicator: TA98, Metabolic Activation: NONE, Method: STANDARD PLATE) “inactive; negative”; (Test System: AMES SALMONELLA TYPHIMURIUM, Strain/Indicator: TA98, Metabolic Activation: RAT, LIVER, S-9, AROCLOR, Method: STANDARD PLATE) “inactive; negative”; under setting [4], “inactive; negative”; (Test System: AMES SALMONELLA TYPHIMURIUM, Strain/Indicator: TA100, Metabolic Activation: RAT, LIVER, S-9, AROCLOR, Method: STANDARD PLATE) “inactive; negative”; (Test System: AMES SALMONELLA TYPHIMURIUM, Strain/Indicator: UTH8413, Metabolic Activation: NONE, Method: STANDARD PLATE) “inactive; negative”; (Test System: AMES SALMONELLA TYPHIMURIUM, Strain/Indicator: UTH8413, Metabolic Activation: RAT, LIVER, S-9, AROCLOR, Method: STANDARD PLATE) “inactive; negative”. Further, the mutagenic call reads like this: (Test System: AMES SALMONELLA TYPHIMURIUM, Strain/Indicator: UTH8414, Metabolic Activation: NONE, Method: STANDARD PLATE) “inactive; negative”; (Test System: AMES SALMONELLA TYPHIMURIUM, Strain/Indicator: UTH8414, Metabolic Activation: RAT, LIVER, S-9, AROCLOR, Method: STANDARD PLATE) “inactive; negative”.
